Laboratory results published in ChEMBL document CHEMBL1138594, “Identification of an N-oxide pyridine GW4064 analog as a potent FXR agonist” (Bioorg Med Chem Lett, 2009).

Target: T1, Bile acid receptor (Homo sapiens, UniProt Q96RI1)
T1 sequence (Q96RI1 whole entry): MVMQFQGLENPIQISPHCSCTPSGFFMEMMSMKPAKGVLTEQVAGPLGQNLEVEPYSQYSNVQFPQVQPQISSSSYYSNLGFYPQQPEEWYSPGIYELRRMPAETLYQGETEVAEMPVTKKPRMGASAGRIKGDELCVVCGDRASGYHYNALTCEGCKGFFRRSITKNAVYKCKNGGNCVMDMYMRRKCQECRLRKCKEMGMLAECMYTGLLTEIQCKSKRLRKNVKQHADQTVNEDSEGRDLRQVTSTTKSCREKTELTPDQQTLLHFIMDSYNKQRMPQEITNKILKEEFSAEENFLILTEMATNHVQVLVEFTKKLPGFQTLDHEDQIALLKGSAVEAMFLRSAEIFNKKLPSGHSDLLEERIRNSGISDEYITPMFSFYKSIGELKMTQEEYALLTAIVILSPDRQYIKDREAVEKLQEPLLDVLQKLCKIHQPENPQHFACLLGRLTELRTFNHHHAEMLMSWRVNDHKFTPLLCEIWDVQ
Assay: Displacement of radioligand from human FXR by scintillation proximity assay
Conditions: not given

IC50 [µM] | Compound
0.17 | CC(C)c1onc(-c2ccc(S(C)(=O)=O)cc2Cl)c1COc1ccc(/C=C/c2cccc(C(=O)O)c2)c(Cl)c1
1.1 | Cc1cc(OCc2c(-c3cc[nH]c(=O)c3Cl)noc2C(C)C)ccc1-c1ccc2c(C(=O)O)cn(C)c2c1
0.31 | COc1ccc(Cl)c(-c2noc(C(C)C)c2COc2ccc(-c3ccc4c(C(=O)O)cn(C)c4c3)c(C)c2)n1
0.69 | CC(C)c1onc(-c2c(Cl)cncc2Cl)c1COc1ccc(/C=C/c2cccc(C(=O)O)c2)c(Cl)c1
1.72 | Cc1cc(OCc2c(-c3ccn(C)c(=O)c3Cl)noc2C(C)C)ccc1-c1ccc2c(C(=O)O)cn(C)c2c1
0.045 | Cc1cc(OCc2c(-c3c(Cl)c[n+]([O-])cc3Cl)noc2C(C)C)ccc1-c1ccc2c(C(=O)O)cn(C)c2c1
2.75 | Cc1cc(OCc2c(-c3c(Cl)cn(C)c(=O)c3Cl)noc2C(C)C)ccc1-c1ccc2c(C(=O)O)cn(C)c2c1
0.235 | Cc1cc(OCc2c(-c3c(Cl)ccc(=O)n3C)noc2C(C)C)ccc1-c1ccc2c(C(=O)O)cn(C)c2c1
4.13 | Cc1cc(OCc2c(-c3[nH]c(=O)ccc3Cl)noc2C(C)C)ccc1-c1ccc2c(C(=O)O)cn(C)c2c1
0.25 | COc1ccccc1-c1noc(C(C)C)c1COc1ccc(/C=C/c2cccc(C(=O)O)c2)c(Cl)c1

Target: T2, Bile acid receptor (Homo sapiens) (UniProt Q96RI1)
T2 sequence (whole entry): T1 sequence (Q96RI1 whole entry)
Assay: Agonist activity at chimeric FXR assessed as receptor transactivation by luciferase transcriptional reporter gene assay relative to GW-4064
Type: functional
Parameters: concentration or dose not given beside the values
Conditions: not given

Activity [%] | Compound
0 | CC(C)c1onc(-c2ccc(S(C)(=O)=O)cc2Cl)c1COc1ccc(/C=C/c2cccc(C(=O)O)c2)c(Cl)c1
58.5 | Cc1cc(OCc2c(-c3cc[nH]c(=O)c3Cl)noc2C(C)C)ccc1-c1ccc2c(C(=O)O)cn(C)c2c1
23 | COc1ccc(Cl)c(-c2noc(C(C)C)c2COc2ccc(-c3ccc4c(C(=O)O)cn(C)c4c3)c(C)c2)n1
59.4 | CC(C)c1onc(-c2c(Cl)cncc2Cl)c1COc1ccc(/C=C/c2cccc(C(=O)O)c2)c(Cl)c1
38 | Cc1cc(OCc2c(-c3c(Cl)cncc3Cl)noc2C(C)C)ccc1-c1ccc2c(C(=O)O)cn(C)c2c1
100 | CC(C)c1onc(-c2c(Cl)cccc2Cl)c1COc1ccc(/C=C/c2cccc(C(=O)O)c2)c(Cl)c1
12 | Cc1cc(OCc2c(-c3ccn(C)c(=O)c3Cl)noc2C(C)C)ccc1-c1ccc2c(C(=O)O)cn(C)c2c1
53.7 | Cc1cc(OCc2c(-c3c(Cl)c[n+]([O-])cc3Cl)noc2C(C)C)ccc1-c1ccc2c(C(=O)O)cn(C)c2c1
9 | Cc1cc(OCc2c(-c3c(Cl)cn(C)c(=O)c3Cl)noc2C(C)C)ccc1-c1ccc2c(C(=O)O)cn(C)c2c1
27 | Cc1cc(OCc2c(-c3c(Cl)ccc(=O)n3C)noc2C(C)C)ccc1-c1ccc2c(C(=O)O)cn(C)c2c1
0 | Cc1cc(OCc2c(-c3[nH]c(=O)ccc3Cl)noc2C(C)C)ccc1-c1ccc2c(C(=O)O)cn(C)c2c1
54.3 | COc1ccccc1-c1noc(C(C)C)c1COc1ccc(/C=C/c2cccc(C(=O)O)c2)c(Cl)c1

Target: T3, Bile acid receptor (Mus musculus, UniProt Q60641)
T3 sequence (Q60641 whole entry): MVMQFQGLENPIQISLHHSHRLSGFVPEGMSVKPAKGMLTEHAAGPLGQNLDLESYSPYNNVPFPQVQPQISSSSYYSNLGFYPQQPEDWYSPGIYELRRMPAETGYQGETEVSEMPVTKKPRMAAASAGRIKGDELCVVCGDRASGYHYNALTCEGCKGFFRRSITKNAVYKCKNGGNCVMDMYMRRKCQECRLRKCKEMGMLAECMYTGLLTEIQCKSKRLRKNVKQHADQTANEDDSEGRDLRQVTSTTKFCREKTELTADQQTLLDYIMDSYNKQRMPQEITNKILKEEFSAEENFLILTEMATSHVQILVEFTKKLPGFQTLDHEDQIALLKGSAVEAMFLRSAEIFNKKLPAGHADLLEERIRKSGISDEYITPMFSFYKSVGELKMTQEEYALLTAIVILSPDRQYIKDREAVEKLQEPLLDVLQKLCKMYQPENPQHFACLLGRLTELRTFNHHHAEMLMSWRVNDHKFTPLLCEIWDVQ
Assay: Agonist activity at mouse chimeric FXR assessed as receptor transactivation by luciferase transcriptional reporter gene assay
Type: functional
Conditions: not given

EC50 [µM] | Compound
> 10 | CC(C)c1onc(-c2ccc(S(C)(=O)=O)cc2Cl)c1COc1ccc(/C=C/c2cccc(C(=O)O)c2)c(Cl)c1
7 | Cc1cc(OCc2c(-c3cc[nH]c(=O)c3Cl)noc2C(C)C)ccc1-c1ccc2c(C(=O)O)cn(C)c2c1
2 | COc1ccc(Cl)c(-c2noc(C(C)C)c2COc2ccc(-c3ccc4c(C(=O)O)cn(C)c4c3)c(C)c2)n1
11 | CC(C)c1onc(-c2c(Cl)cncc2Cl)c1COc1ccc(/C=C/c2cccc(C(=O)O)c2)c(Cl)c1
3 | Cc1cc(OCc2c(-c3c(Cl)cncc3Cl)noc2C(C)C)ccc1-c1ccc2c(C(=O)O)cn(C)c2c1
2 | CC(C)c1onc(-c2c(Cl)cccc2Cl)c1COc1ccc(/C=C/c2cccc(C(=O)O)c2)c(Cl)c1
6 | Cc1cc(OCc2c(-c3ccn(C)c(=O)c3Cl)noc2C(C)C)ccc1-c1ccc2c(C(=O)O)cn(C)c2c1
0.2 | Cc1cc(OCc2c(-c3c(Cl)c[n+]([O-])cc3Cl)noc2C(C)C)ccc1-c1ccc2c(C(=O)O)cn(C)c2c1
11 | Cc1cc(OCc2c(-c3c(Cl)cn(C)c(=O)c3Cl)noc2C(C)C)ccc1-c1ccc2c(C(=O)O)cn(C)c2c1
4 | Cc1cc(OCc2c(-c3c(Cl)ccc(=O)n3C)noc2C(C)C)ccc1-c1ccc2c(C(=O)O)cn(C)c2c1
18 | Cc1cc(OCc2c(-c3[nH]c(=O)ccc3Cl)noc2C(C)C)ccc1-c1ccc2c(C(=O)O)cn(C)c2c1
10 | COc1ccccc1-c1noc(C(C)C)c1COc1ccc(/C=C/c2cccc(C(=O)O)c2)c(Cl)c1

Target: T4, Bile acid receptor (Mus musculus) (UniProt Q60641)
T4 sequence (whole entry): T3 sequence (Q60641 whole entry)
Assay: Agonist activity at mouse chimeric FXR assessed as receptor transactivation by luciferase transcriptional reporter gene assay relative to GW-4064
Type: functional
Parameters: concentration or dose not given beside the values
Conditions: not given

Activity [%] | Compound
0 | CC(C)c1onc(-c2ccc(S(C)(=O)=O)cc2Cl)c1COc1ccc(/C=C/c2cccc(C(=O)O)c2)c(Cl)c1
63.3 | Cc1cc(OCc2c(-c3cc[nH]c(=O)c3Cl)noc2C(C)C)ccc1-c1ccc2c(C(=O)O)cn(C)c2c1
12 | COc1ccc(Cl)c(-c2noc(C(C)C)c2COc2ccc(-c3ccc4c(C(=O)O)cn(C)c4c3)c(C)c2)n1
48 | CC(C)c1onc(-c2c(Cl)cncc2Cl)c1COc1ccc(/C=C/c2cccc(C(=O)O)c2)c(Cl)c1
71 | Cc1cc(OCc2c(-c3c(Cl)cncc3Cl)noc2C(C)C)ccc1-c1ccc2c(C(=O)O)cn(C)c2c1
17 | Cc1cc(OCc2c(-c3ccn(C)c(=O)c3Cl)noc2C(C)C)ccc1-c1ccc2c(C(=O)O)cn(C)c2c1
88.5 | Cc1cc(OCc2c(-c3c(Cl)c[n+]([O-])cc3Cl)noc2C(C)C)ccc1-c1ccc2c(C(=O)O)cn(C)c2c1
15 | Cc1cc(OCc2c(-c3c(Cl)cn(C)c(=O)c3Cl)noc2C(C)C)ccc1-c1ccc2c(C(=O)O)cn(C)c2c1
39 | Cc1cc(OCc2c(-c3c(Cl)ccc(=O)n3C)noc2C(C)C)ccc1-c1ccc2c(C(=O)O)cn(C)c2c1
8 | Cc1cc(OCc2c(-c3[nH]c(=O)ccc3Cl)noc2C(C)C)ccc1-c1ccc2c(C(=O)O)cn(C)c2c1
19.8 | COc1ccccc1-c1noc(C(C)C)c1COc1ccc(/C=C/c2cccc(C(=O)O)c2)c(Cl)c1

System: not listed separately
Assay: Permeability by PAMPA method
Type: ADME
Conditions: read-out: permeability

Papp [×10⁻⁶ cm/s] | Compound
0.7 | COc1ccc(Cl)c(-c2noc(C(C)C)c2COc2ccc(-c3ccc4c(C(=O)O)cn(C)c4c3)c(C)c2)n1
0.09 | CC(C)c1onc(-c2c(Cl)cncc2Cl)c1COc1ccc(/C=C/c2cccc(C(=O)O)c2)c(Cl)c1
0.19 | Cc1cc(OCc2c(-c3c(Cl)cncc3Cl)noc2C(C)C)ccc1-c1ccc2c(C(=O)O)cn(C)c2c1
587 | Cc1cc(OCc2c(-c3c(Cl)c[n+]([O-])cc3Cl)noc2C(C)C)ccc1-c1ccc2c(C(=O)O)cn(C)c2c1

Target: T1, Bile acid receptor
Conditions: not given

EC50 [µM] | Compound
> 10 | CC(C)c1onc(-c2ccc(S(C)(=O)=O)cc2Cl)c1COc1ccc(/C=C/c2cccc(C(=O)O)c2)c(Cl)c1
5 | Cc1cc(OCc2c(-c3cc[nH]c(=O)c3Cl)noc2C(C)C)ccc1-c1ccc2c(C(=O)O)cn(C)c2c1
2 | COc1ccc(Cl)c(-c2noc(C(C)C)c2COc2ccc(-c3ccc4c(C(=O)O)cn(C)c4c3)c(C)c2)n1
9 | CC(C)c1onc(-c2c(Cl)cncc2Cl)c1COc1ccc(/C=C/c2cccc(C(=O)O)c2)c(Cl)c1
0.9 | Cc1cc(OCc2c(-c3c(Cl)cncc3Cl)noc2C(C)C)ccc1-c1ccc2c(C(=O)O)cn(C)c2c1
7 | Cc1cc(OCc2c(-c3ccn(C)c(=O)c3Cl)noc2C(C)C)ccc1-c1ccc2c(C(=O)O)cn(C)c2c1
0.102 | Cc1cc(OCc2c(-c3c(Cl)c[n+]([O-])cc3Cl)noc2C(C)C)ccc1-c1ccc2c(C(=O)O)cn(C)c2c1
12 | Cc1cc(OCc2c(-c3c(Cl)cn(C)c(=O)c3Cl)noc2C(C)C)ccc1-c1ccc2c(C(=O)O)cn(C)c2c1
4 | Cc1cc(OCc2c(-c3c(Cl)ccc(=O)n3C)noc2C(C)C)ccc1-c1ccc2c(C(=O)O)cn(C)c2c1
10 | COc1ccccc1-c1noc(C(C)C)c1COc1ccc(/C=C/c2cccc(C(=O)O)c2)c(Cl)c1
